These are literature values, as cited in patent publication US6582498B1, “Method of separating carbon dioxide from a gas mixture using a fluid dynamic instability” (Battelle Memorial Institute, priority 2001, dated 2003).

As to `NCCO` [MEA, monoethanolamine], in the data set on rabbit, the “eye irritation (for rabbit)” value is on record as 0.763 milligrams. Moreover, the LD50 (intraperitoneal for mouse) with mouse is 50 mg/kg. The “LD50 (oral for rat)” value in the data set on rat is 2,050 mg/kg.
